The results in this text go back to ChEMBL document CHEMBL1124865, “Synthesis and biological evaluation of a series of parenteral 3'-quaternary ammonium cephalosporins” (J Med Chem, 1990).

In brackets after ≈: the same amount, converted by molar mass. Some results are limits rather than exact numbers.

What all share (assay type): functional
Test [1] has as its system Enterobacter cloacae. Briefly: Antibacterial activity against Enterobacter cloacae 265A.
In test [2] the test system is Serratia marcescens. Briefly: Antibacterial activity against Serratia marcescens SE3.
For test [3], the system named is Escherichia coli. Briefly: In vivo efficacy against Escherichia coli infections in mice.
Test [4] has as its system Staphylococcus aureus. Briefly: Antibacterial activity against penicillin G susceptible Staphylococcus aureus.
Test [5] deals with Escherichia coli. In words: In vivo efficacy against Escherichia coli infected mice treated at 1 hr and 5 hr post infection.
For test [6], the system named is Streptococcus pyogenes. Briefly: Antibacterial activity against Streptococcus pyogenes.
In test [7] the test system is Enterococcus faecium. In words: Antibacterial activity against Enterococcus faecium.
Test [8] concerns Streptococcus pneumoniae. In words: Antibacterial activity against Streptococcus pneumoniae.
In test [9] the test system is Staphylococcus aureus. Briefly: In vivo efficacy against Staphylococcus aureus infected mice treated at 1 hr and 5 hr post infection.
In test [10] the test system is Pseudomonas aeruginosa. In words: Antibacterial activity against Pseudomonas aeruginosa PS18.
The test system of test [11] is Pseudomonas aeruginosa. In words: In vivo efficacy against Pseudomonas aeruginosa infections in mice.
Test [12] has as its system Pseudomonas aeruginosa. Briefly: In vivo efficacy against Pseudomonas aeruginosa infected mice treated at 1 hr and 5 hr post infection.
Test [13] deals with Staphylococcus aureus. Briefly: Antibacterial activity against penicillin G resistance Staphylococcus aureus.
The subject of test [14] is Klebsiella pneumoniae. In words: microbe, parasite or virus in culture.
Description: Antibacterial activity against Klebsiella pneumoniae 1082E
In test [15] the test system is Escherichia coli. Briefly: Antibacterial activity against Escherichia coli EC14.
Test [16] relates to Klebsiella pneumoniae. In words: Antibacterial activity against Klebsiella pneumoniae X26.
The subject of test [17] is Pseudomonas aeruginosa. Briefly: Antibacterial activity against Pseudomonas aeruginosa X528.
Test [18] relates to Enterobacter cloacae. Briefly: Antibacterial activity against Enterobacter cloacae EB5.
In test [19] the test system is Escherichia coli. Briefly: Antibacterial activity against Escherichia coli TEM.
Test [20] has as its system Staphylococcus aureus. Briefly: In vivo efficacy against Staphylococcus aureus infections in mice.
[21] abbreviates: Escherichia coli, read-out: MIC.
Setting [22] is: Escherichia coli, read-out: ED50.
The mark [23] stands for this setting: Streptococcus pyogenes, read-out: MIC.
Where [24] appears, read: Enterococcus faecium, read-out: MIC.
[25] abbreviates: Streptococcus pneumoniae, read-out: MIC.
Setting [26] is: Enterobacter cloacae, read-out: MIC.
Setting [27] is: Pseudomonas aeruginosa, read-out: MIC.
Where [28] appears, read: Pseudomonas aeruginosa, read-out: ED50.
The mark [29] stands for this setting: Klebsiella pneumoniae, read-out: MIC.
Where [30] appears, read: Serratia marcescens, read-out: MIC.
The mark [31] stands for this setting: Staphylococcus aureus, read-out: MIC.
[32] abbreviates: Staphylococcus aureus, read-out: ED50.

In general, ED50 refers to the dose at which the effect has come halfway, by size or by number of responders. For `CO/N=C(\C(=O)N[C@@H]1C(=O)N2C(C(=O)[O-])=C(C[n+]3ccc(CC(=O)NO)cc3)CS[C@H]12)c1csc(N)n1` (stereo in doubt; 20), the MIC was 64 µg/mL (≈ 117 µM) in [1]; 0.25 µg/mL (≈ 0.457 µM) in test [2]; 0.06 µg/mL (≈ 0.11 µM) in test [3]; 8 µg/mL (≈ 14.6 µM) in [4]; 0.06 µg/mL (≈ 0.11 µM) in test [6]; over 128 µg/mL in test [7]. Besides, the MIC stood at 0.06 µg/mL (≈ 0.11 µM) in [8]; 16 µg/mL (≈ 29.2 µM) in [10]; 8 µg/mL (≈ 14.6 µM) in test [11]; 16 µg/mL (≈ 29.2 µM) in test [13]; 8 µg/mL (≈ 14.6 µM) in test [14]. For the same compound, the ED50 is under 0.03 mg/kg in test [5], 1.4 mg/kg in test [9] and 20 mg/kg in [12].
As for `CO/N=C(\C(=O)N[C@@H]1C(=O)N2C(C(=O)[O-])=C(C[n+]3cccc(CC(=O)O)c3)CS[C@H]12)c1csc(N)n1` (stereo in doubt; 14), the MIC in [15] came to 0.06 µg/mL (≈ 0.113 µM); in test [16], 0.03 µg/mL (≈ 0.0563 µM); in test [1], 16 µg/mL (≈ 30 µM); in test [17] it was 2 µg/mL (≈ 3.76 µM); in test [2], 0.125 µg/mL (≈ 0.235 µM); in [3] (setting [21]) it was 0.06 µg/mL (≈ 0.113 µM). Also, the MIC is 1 µg/mL (≈ 1.88 µM) in test [4]; 0.015 µg/mL (≈ 0.0282 µM) in [6] (setting [23]); over 128 µg/mL in [7] (setting [24]); 0.015 µg/mL (≈ 0.0282 µM) in test [8] (setting [25]); 0.25 µg/mL (≈ 0.469 µM) in test [18] (setting [26]); 0.06 µg/mL (≈ 0.113 µM) in test [19] (setting [21]). For the same compound, the MIC in test [20] was found to be 1 µg/mL (≈ 1.88 µM); in test [10] it was 8 µg/mL (≈ 15 µM); in [11] (setting [27]), 8 µg/mL (≈ 15 µM); in test [13], 2 µg/mL (≈ 3.76 µM); in [14], 16 µg/mL (≈ 30 µM). Also, the figures for the ED50 in test [5] (setting [22]), in test [9] and in test [12] (setting [28]) were 0.09 mg/kg, 1.4 mg/kg and 20 mg/kg, respectively.
For the compound `CO/N=C(\C(=O)N[C@@H]1C(=O)N2C(C(=O)[O-])=C(C[n+]3ccccc3C)CS[C@H]12)c1csc(N)n1`, the MIC was 0.25 µg/mL (≈ 0.512 µM) in test [15] (setting [21]); 0.25 µg/mL (≈ 0.512 µM) in [16] (setting [29]); 128 µg/mL (≈ 262 µM) in [1] (setting [26]); 32 µg/mL (≈ 65.5 µM) in [17] (setting [27]); 1 µg/mL (≈ 2.05 µM) in [2] (setting [30]); 0.06 µg/mL (≈ 0.123 µM) in [3] (setting [21]). The MIC was 16 µg/mL (≈ 32.7 µM) in test [4] (setting [31]); 0.25 µg/mL (≈ 0.512 µM) in [6] (setting [23]); over 128 µg/mL in test [7] (setting [24]); 0.5 µg/mL (≈ 1.02 µM) in test [8] (setting [25]); 2 µg/mL (≈ 4.09 µM) in test [18] (setting [26]); 0.5 µg/mL (≈ 1.02 µM) in test [19] (setting [21]). Also, the MIC in test [20] (setting [31]) stood at 2 µg/mL (≈ 4.09 µM); in test [10] (setting [27]) it was 64 µg/mL (≈ 131 µM); in test [11] (setting [27]), 64 µg/mL (≈ 131 µM); in test [13] (setting [31]) it was 16 µg/mL (≈ 32.7 µM); in [14] (setting [29]), 32 µg/mL (≈ 65.5 µM). For the same compound, the ED50 is under 0.16 mg/kg in test [5] (setting [22]), 2.7 mg/kg in [9] (setting [32]) and 12 mg/kg in [12] (setting [28]).
Take `CO/N=C(\C(=O)N[C@@H]1C(=O)N2C(C(=O)[O-])=C(C[n+]3ccc4c(O)cccc4c3)CS[C@H]12)c1csc(N)n1`: the MIC in [15] (setting [21]) is 0.015 µg/mL (≈ 0.0277 µM); in test [16] (setting [29]), under 0.008 µg/mL; in test [1] (setting [26]), 16 µg/mL (≈ 29.6 µM); in test [17] (setting [27]), 8 µg/mL (≈ 14.8 µM); in test [2] (setting [30]), 0.25 µg/mL (≈ 0.462 µM); in [3] (setting [21]), 0.015 µg/mL (≈ 0.0277 µM). For the same compound, the MIC was 1 µg/mL (≈ 1.85 µM) in test [4] (setting [31]); under 0.008 µg/mL in [6] (setting [23]); 128 µg/mL (≈ 237 µM) in test [7] (setting [24]); 0.05 µg/mL (≈ 0.0925 µM) in [8] (setting [25]); 0.125 µg/mL (≈ 0.231 µM) in test [18] (setting [26]); 0.03 µg/mL (≈ 0.0555 µM) in test [19] (setting [21]). Further, the MIC in test [20] (setting [31]) was determined as 1 µg/mL (≈ 1.85 µM); in test [10] (setting [27]), 8 µg/mL (≈ 14.8 µM); in test [11] (setting [27]) it was 8 µg/mL (≈ 14.8 µM); in test [13] (setting [31]), 2 µg/mL (≈ 3.7 µM); in test [14] (setting [29]), 8 µg/mL (≈ 14.8 µM). Also, the figures for the ED50 in test [5] (setting [22]), in test [9] (setting [32]) and in test [12] (setting [28]) were under 0.03 mg/kg, 2 mg/kg and over 50 mg/kg, respectively.
For `CO/N=C(\C(=O)N[C@@H]1C(=O)N2C(C(=O)[O-])=C(C[n+]3ccc(CC(=O)NO)cc3)CS[C@H]12)c1csc(N)n1` (stereo in doubt; 12), the MIC was 0.06 µg/mL (≈ 0.11 µM) in [15]; 0.06 µg/mL (≈ 0.11 µM) in test [16]; over 128 µg/mL in test [1]; 4 µg/mL (≈ 7.3 µM) in test [17]; 4 µg/mL (≈ 7.3 µM) in test [18]; 0.125 µg/mL (≈ 0.228 µM) in [19]. The MIC in [20] is 4 µg/mL (≈ 7.3 µM); in test [10] it was 8 µg/mL (≈ 14.6 µM); in test [13] it was 8 µg/mL (≈ 14.6 µM); in test [14], 32 µg/mL (≈ 58.4 µM). Besides, the results for the ED50 in test [5], in test [9] and in test [12] were under 0.16 mg/kg, 5.3 mg/kg and 8.6 mg/kg, respectively.
`CO/N=C(\C(=O)N[C@@H]1C(=O)N2C(C(=O)[O-])=C(C[n+]3ccc(CC(=O)NO)cc3)CS[C@H]12)c1csc(N)n1` (stereo in doubt; 21): the MIC in test [1] stood at 16 µg/mL (≈ 29.2 µM); in test [17], 1 µg/mL (≈ 1.83 µM); in [2] it was 0.06 µg/mL (≈ 0.11 µM); in test [6] it was 0.015 µg/mL (≈ 0.0274 µM); in test [18], 0.125 µg/mL (≈ 0.228 µM); in test [20] it was 2 µg/mL (≈ 3.65 µM). Further, the ED50 in test [5] stood at 0.07 mg/kg; in test [9], 3.3 mg/kg.
